Among the data in article PMC12636295 (bioRxiv, 2025) are Ki values, retold here.

Molecules are shown by their SMILES.

The assay addresses T1, SCP2 (human sterol carrier protein 2) (Homo sapiens, UniProt P22307).
T1 sequence (P22307 425-547): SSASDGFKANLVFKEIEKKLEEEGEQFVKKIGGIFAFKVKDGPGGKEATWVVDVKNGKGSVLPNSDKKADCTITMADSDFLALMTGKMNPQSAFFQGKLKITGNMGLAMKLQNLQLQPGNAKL
Description: NBD-SA fluorescence displacement titration. The class given is binding.

`O=C(O)C(F)(F)C(F)(F)C(F)(F)C(F)(F)C(F)(F)C(F)(F)C(F)(F)C(F)(F)C(F)(F)C(F)(F)C(F)(F)C(F)(F)C(F)(F)C(F)(F)C(F)(F)F` [PFHxDA] gave a Ki of 8.4 ± 0.6 µM.
